The source made the active and inactive calls. No cut-off for these calls is given here.
Experiments:
[1] = target: T1, Sphingosine 1-phosphate receptor 5 (Homo sapiens, UniProt Q9H228); assay: Agonist activity at human SIP5 receptor by [35S]GTPgammaS binding assay; assay type: functional
[2] = target: T1, Sphingosine 1-phosphate receptor 5; assay: Agonist activity at human SIP5 receptor at 10 uM by [35S]GTPgammaS binding assay relative to S1P; assay type: functional
[3] = target: T2, Sphingosine 1-phosphate receptor 1 (Homo sapiens, UniProt P21453); assay: Agonist activity at human SIP1 receptor expressed in CHO cells by [35S]GTPgammaS binding assay; assay type: functional, cell-based
[4] = target: T3, Sphingosine 1-phosphate receptor 3 (Homo sapiens, UniProt Q99500); assay: Agonist activity at human SIP3 receptor by [35S]GTPgammaS binding assay; assay type: functional
[5] = target: T3, Sphingosine 1-phosphate receptor 3; assay: Agonist activity at human SIP3 receptor at 10 uM by [35S]GTPgammaS binding assay relative to S1P; assay type: functional
[6] = target: T4, Sphingosine 1-phosphate receptor 4 (Homo sapiens, UniProt O95977); assay: Agonist activity at human SIP4 receptor by [35S]GTPgammaS binding assay; assay type: functional
T4 sequence (O95977 whole entry): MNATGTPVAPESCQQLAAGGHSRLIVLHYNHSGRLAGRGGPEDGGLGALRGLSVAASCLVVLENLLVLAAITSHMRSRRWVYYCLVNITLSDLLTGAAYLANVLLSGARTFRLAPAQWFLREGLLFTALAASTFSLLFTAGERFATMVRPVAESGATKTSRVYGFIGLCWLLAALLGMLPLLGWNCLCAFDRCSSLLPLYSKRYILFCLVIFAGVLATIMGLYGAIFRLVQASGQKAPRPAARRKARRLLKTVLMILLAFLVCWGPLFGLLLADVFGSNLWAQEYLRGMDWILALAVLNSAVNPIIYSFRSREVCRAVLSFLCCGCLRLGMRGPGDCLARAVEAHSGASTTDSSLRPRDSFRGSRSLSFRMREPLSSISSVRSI

[7] = target: T5, Sphingosine 1-phosphate receptor 4 (Homo sapiens) (UniProt O95977); assay: Agonist activity at human SIP4 receptor at 10 uM by [35S]GTPgammaS binding assay relative to S1P; assay type: functional
T5 sequence (whole entry): T4 sequence (O95977 whole entry)

[8] = target: T2, Sphingosine 1-phosphate receptor 1; details: CHO, at 10 µM
Description: Agonist activity at human SIP1 receptor expressed in CHO cells at 10 uM by [35S]GTPgammaS binding assay relative to S1P

Rattus norvegicus [9] = assay: Reduction of lymphocytes count in Lewis rat blood at 3 mg/kg. po; assay type: functional, organism-based; design: dose 3 mg/kg
Rattus norvegicus [10] = assay: Reduction of lymphocytes count in Lewis rat blood at 0.3 mg/kg. iv; assay type: functional, organism-based; design: dose 0.3 mg/kg
[11] = Chemical stability at pH >7 assessed as half life; assay type: physicochemical
Homo sapiens [12] = species on record: Homo sapiens; assay: Selectivity ratio, EC50 for human S1P1 receptor over EC50 for human S1P4 receptor
Homo sapiens [13] = species on record: Homo sapiens; assay: Selectivity ratio, EC50 for human S1P1 receptor over EC50 for human S1P5 receptor

T3 sequence (Q99500 whole entry): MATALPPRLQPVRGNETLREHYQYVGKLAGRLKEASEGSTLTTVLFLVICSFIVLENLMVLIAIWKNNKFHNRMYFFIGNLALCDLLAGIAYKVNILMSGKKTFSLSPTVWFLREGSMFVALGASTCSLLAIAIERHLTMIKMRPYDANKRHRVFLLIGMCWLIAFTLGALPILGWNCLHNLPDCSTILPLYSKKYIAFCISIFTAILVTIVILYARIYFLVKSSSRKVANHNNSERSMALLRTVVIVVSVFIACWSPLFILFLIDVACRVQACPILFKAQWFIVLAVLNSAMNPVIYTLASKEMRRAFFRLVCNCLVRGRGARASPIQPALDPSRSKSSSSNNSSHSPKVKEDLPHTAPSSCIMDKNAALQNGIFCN
T1 sequence (Q9H228 whole entry): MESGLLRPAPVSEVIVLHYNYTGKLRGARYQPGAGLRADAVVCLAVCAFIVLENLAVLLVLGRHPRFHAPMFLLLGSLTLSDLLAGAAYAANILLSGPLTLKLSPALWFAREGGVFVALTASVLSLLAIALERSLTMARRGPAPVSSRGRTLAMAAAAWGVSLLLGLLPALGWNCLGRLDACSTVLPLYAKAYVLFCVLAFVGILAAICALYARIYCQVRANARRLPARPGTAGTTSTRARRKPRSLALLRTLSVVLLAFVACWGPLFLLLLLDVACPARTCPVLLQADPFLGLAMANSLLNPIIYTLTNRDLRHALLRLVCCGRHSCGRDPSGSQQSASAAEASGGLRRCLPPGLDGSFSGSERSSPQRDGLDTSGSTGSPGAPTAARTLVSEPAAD
T2 sequence (P21453 whole entry): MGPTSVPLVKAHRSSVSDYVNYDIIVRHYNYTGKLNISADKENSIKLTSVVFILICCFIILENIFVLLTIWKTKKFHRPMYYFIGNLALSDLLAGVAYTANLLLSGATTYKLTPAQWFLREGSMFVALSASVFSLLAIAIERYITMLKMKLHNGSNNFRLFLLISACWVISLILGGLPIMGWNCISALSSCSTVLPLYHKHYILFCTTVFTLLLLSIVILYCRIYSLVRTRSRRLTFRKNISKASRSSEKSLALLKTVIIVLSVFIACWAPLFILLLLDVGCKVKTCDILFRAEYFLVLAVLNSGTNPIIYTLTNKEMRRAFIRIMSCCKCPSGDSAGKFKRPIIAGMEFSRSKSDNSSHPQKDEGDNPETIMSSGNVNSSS

Cc1nn(C(=O)/C=C/c2cccnc2)c2c1[C@H]1[C@@H](C2)C1(C)C
EC50 [1]: 0.345 µM
Emax [2]: 87%
EC50 [3]: 0.017 µM
EC50 [4]: > 1 µM
Emax [5]: 61%
EC50 [6]: 0.1 µM
Emax [7]: 30%
Emax [8]: 90%

Cc1nn(C(=O)/C=C/c2ccccc2)c2c1[C@H]1[C@@H](C2)C1(C)C
EC50 [1]: 1.76 µM
Emax [2]: 90%
EC50 [4]: > 1 µM
Emax [5]: 94%
EC50 [6]: > 10 µM
Emax [7]: -2%

Cc1nn(S(=O)(=O)/C=C/c2ccccc2)c2c1[C@H]1[C@@H](C2)C1(C)C
EC50 [1]: > 10 µM
Emax [2]: -1%
EC50 [3]: > 10 µM
EC50 [4]: > 10 µM
Emax [5]: -2%
EC50 [6]: > 10 µM
Emax [7]: -19%
Emax [8]: 7%

Cc1nn(C(=O)/C=C/c2cccc(S(N)(=O)=O)c2)c2c1[C@H]1[C@@H](C2)C1(C)C
EC50 [1]: 0.082 µM
Emax [2]: 76%
EC50 [3]: 0.011 µM
EC50 [4]: 1.35 µM
Emax [5]: 84%
EC50 [6]: 0.116 µM
Emax [7]: 21%
Emax [8]: 92%

Cc1nn(C(=O)/C=C/c2ccc(S(N)(=O)=O)cc2)c2c1[C@H]1[C@@H](C2)C1(C)C
EC50 [1]: > 10 µM
Emax [2]: 16%
EC50 [3]: 0.119 µM
EC50 [4]: > 1 µM
Emax [5]: 68%
EC50 [6]: > 10 µM
Emax [7]: -22%
Emax [8]: 68%

CCCCCCC(=O)n1nc(C)c2c1C[C@@H]1[C@H]2C1(C)C
EC50 [1]: > 10 µM
Emax [2]: 2%
EC50 [3]: > 10 µM
EC50 [4]: > 10 µM
Emax [5]: 44%
EC50 [6]: > 10 µM
Emax [7]: -6%
Emax [8]: 25%

Cc1nn(C(=O)/C=C/c2ccc(-c3ccccc3)cc2)c2c1[C@H]1[C@@H](C2)C1(C)C
EC50 [1]: > 10 µM
Emax [2]: 22%
EC50 [3]: 0.28 µM
EC50 [4]: > 10 µM
Emax [5]: 8%
EC50 [6]: > 10 µM
Emax [7]: 1%
Emax [8]: 76%

Cc1nn(C/C=C/c2ccccc2)c2c1[C@H]1[C@@H](C2)C1(C)C
EC50 [1]: > 10 µM
Emax [2]: 10%
EC50 [3]: > 10 µM
EC50 [4]: > 10 µM
Emax [5]: 14%
EC50 [6]: > 10 µM
Emax [7]: 10%
Emax [8]: 45%

Cc1nn(C(=O)/C=C/c2cccc(C(F)(F)F)c2)c2c1[C@H]1[C@@H](C2)C1(C)C
EC50 [1]: 0.325 µM
Emax [2]: 56%
EC50 [3]: 0.026 µM
EC50 [4]: > 10 µM
Emax [5]: 46%
EC50 [6]: > 10 µM
Emax [7]: 17%
Emax [8]: 65%

COc1ccc(/C=C/C(=O)n2nc(C)c3c2C[C@@H]2[C@H]3C2(C)C)cc1OC
EC50 [1]: 0.9 µM
Emax [2]: 80%
EC50 [3]: 0.025 µM
EC50 [4]: > 10 µM
Emax [5]: 46%
EC50 [6]: > 10 µM
Emax [7]: 30%
Emax [8]: 89%

Cc1nn(C(=O)/C=C/c2ccncc2)c2c1[C@H]1[C@@H](C2)C1(C)C
EC50 [1]: 0.13 µM
Emax [2]: 93%
Activity (Rattus norvegicus [9]): inactive
Activity (Rattus norvegicus [10]): inactive
half-life [11]: 3 h
EC50 [3]: 0.007 µM
EC50 [4]: 0.345 µM
Emax [5]: 83%
EC50 [6]: 0.1 µM
Emax [7]: 32%
Emax [8]: 92%

Cc1nn(C(=O)/C=C/C2CCCCC2)c2c1[C@H]1[C@@H](C2)C1(C)C
EC50 [1]: > 10 µM
Emax [2]: 29%
EC50 [3]: > 10 µM
EC50 [4]: > 10 µM
Emax [5]: 3%
EC50 [6]: > 10 µM
Emax [7]: 15%
Emax [8]: 18%

Cc1nn(C(=O)CCc2ccccc2)c2c1[C@H]1[C@@H](C2)C1(C)C
EC50 [1]: > 10 µM
Emax [2]: 26%
EC50 [3]: 0.086 µM
EC50 [4]: > 10 µM
Emax [5]: 38%
EC50 [6]: > 10 µM
Emax [7]: 0%
Emax [8]: 55%

Cc1nn(C(=O)/C=C/c2cccc3[nH]ccc23)c2c1[C@H]1[C@@H](C2)C1(C)C
EC50 [1]: 0.505 µM
Emax [2]: 130%
Ratio EC50 (Homo sapiens [12]): 250
Ratio EC50 (Homo sapiens [13]): 250
Activity (Rattus norvegicus [9]): inactive
Activity (Rattus norvegicus [10]): inactive
EC50 [3]: 0.002 µM
EC50 [4]: 0.995 µM
Emax [5]: 84%
EC50 [6]: 0.56 µM
Emax [7]: 28%
Emax [8]: 90%

Cc1nn(C(=O)/C=C/c2ccccc2Cl)c2c1[C@H]1[C@@H](C2)C1(C)C
EC50 [1]: > 10 µM
Emax [2]: -19%
EC50 [3]: 0.016 µM
EC50 [4]: > 1 µM
Emax [5]: 69%
EC50 [6]: > 10 µM
Emax [7]: -19%
Emax [8]: 89%
